This passage reports viability, T/C and IC50 results from PubChem BioAssay AID1918946 (Molecular Pharmacology Branch, DTP, NCI, 2023).

Several values for one entry are separate records, joined by “and”; a condition that tells them apart may be missing. Equal values may be shown once. Some results are limits rather than exact numbers.

The test system of this test is 885512-296-R-J2-PDC complex spheroid viability. The test can be described thus: Anticancer human tumor 885512-296-R-J2-PDC patient-derived breast carcinoma cell line growth inhibition. To be noted: for viability, T/C: stronger effect = lower value; for IC50: curve of compound. The text has this: Multicellular complex tumor spheroid response to LSD1 Inhibitor Iadademstat in combination with a variety of drugs and investigational agents in selected tumor cell lines
The current study was undertaken to assess response to LSD1 inhibitors in combination with standard-of-care drugs and investigational agents in solid tumor complex spheroid models as well as in the K-562 leukemia. Complex spheroids include a stromal component modeled by human endothelial cells (HUVEC) and fibroblasts modeled by human mesenchymal stem cells (MSCs). The concentration ranges selected for each drug and investigational agent were based upon clinically achievable concentrations if the clinical Cmax of the agent was known.
Compounds. The drugs and investigational agents used in this study are listed on Table 1. All of the agents used, including staurosporine (NSC755774) and gemcitabine (NSC613327), were obtained from the Developmental Therapeutics Program, NCI. FDA-approved anticancer drugs are available from the NCI at http://dtp.nci.nih.gov/branches/dscb/oncology_drugset_explanation.html. Drugs and investigational agents were >95% pure by proton nuclear magnetic resonance (NMR) and liquid chromatography/mass spectrometry (LC/MS). Stock solutions were prepared at 400x in DMSO, stored at -70 degrees C, and diluted in fresh medium prior to their use. The final concentration of DMSO in cell culture wells never exceeded 0.25% (v/v). The FDA-approved anticancer drug set is available from the Developmental Therapeutics Program at https://dtp.cancer.gov/organization/dscb/obtaining/available_plates.htm. All drugs and investigational agents were tested over a range starting from a high concentration at or near the clinical Cmax and decreasing in half-log increments. If the clinical Cmax for an agent had not been determined, the highest concentration tested was 10 microM.
Cell Lines. The patient-derived cancer cell (PDC) lines: 292921-168-R-J2-PDC, K24384-001-R-PDC, and 521955-158-R2-J5-PDC pancreatic carcinomas, 556581-035-R-J1 ovarian carcinoma, 324938-238-R-J1-PDC, 855422-203-R-J1-PDC and 883617-216-R-J1-PDC urothelial bladder carcinomas, 743489-274-T-PDC renal cell carcinoma, 138582-R-J1 Merkel cell tumor, K60290-347-R-J1 and K57222-313-R-J1-PDC glioblastomas, 653999-131-R-J2-PDC, LG0703-F948-PDC, and 349418-098-R-PDC non-small cell lung carcinomas, 885512-296-R-J2-PDC, 171881-019-R-J1-PDC breast carcinomas and 186277-243-T-J2-PDC and 233499-124-R-J2-PDC colon carcinomas were obtained from the NCI Patient-Derived Models Repository (PDMR, https://pdmr.cancer.gov). The established cell lines NCI/ADR-RES (RRID:CVCL_14520 and OVCAR-5 (RRID:CVCL_1628) ovarian carcinomas, 786-O (RRID:CVCL_1051) and A498 (RRID:CVCL_A498) renal cell carcinoma, NCI-H211 (ATCC, cat. CRL-5824; RRID:CVCL_1529), NCI-H196 (ATCC, cat. CRL-5823, RRID:CVCL_1509), SW 1271 (ATCC, cat. CRL-2177, RRID:CVCL_1716) and NCI-H1876 (ATCC, cat. CRL-5902, RRID:CVCL_1503) small cell lung carcinomas, MDA-MB-231 (RRID:CVCL_0062) and MDA-MB-468 (RRID:CVCL_0419)breast carcinomas (10-12). Pooled donor human umbilical vein endothelial cells (HUVEC, Lonza, cat. CC-2519) and human mesenchymal stem cells (hMSC, Lonza, cat. PT-2501) were purchased from Lonza (Walkersville, MD).
Cell Culture. All cells were maintained in an incubator at 37 degrees C and 5% CO2 with 95% humidity. The PDC lines were cultured according to standard operating procedures established by the NCI PDMR (https://pdmr.cancer.gov). Briefly all PDCs were thawed and cultured in Matrigel-coated flasks prepared with a working solution of 1X Ham's F-12 nutrient mix, without supplementation (Invitrogen, Waltham, MA, cat. 11765054), 100 U/mL penicillin-streptomycin (Invitrogen, cat. 15140122), and 2.5% Matrigel (Corning Inc., Corning, NY, cat. 354248) for the first three passages. […]
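Also: spheroids exposed to agents for 7 days before viability read.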

In the case of `Cn1ncnc1C1c2n[nH]c(=O)c3cc(F)cc(c23)NC1c1ccc(F)cc1` (stereo not drawn), the IC50 is 15.9 nM and 38.4 nM. Also, for the setting “compound 0.000316 µM”, the viability, T/C was 113% and 78.9%. The viability, T/C (compound 0.001 µM) is 96.4% and 90.1%. For the same molecule, the viability, T/C (compound 0.00316 µM) is 81.5% and 89.5%. Besides, the viability, T/C (compound 0.01 µM) is 58.5% and 70.7%. Besides, the viability, T/C (compound 0.0316 µM) is 36.5% and 55.6%. Under “compound 0.1 µM”, the viability, T/C was 15.5% and 29.8%.

On to `NS(=O)(=O)OCC1CC(n2ccc3c(NC4CCc5ccccc54)ncnc32)CC1O` (stereo not drawn), for which the IC50 was < 9.49 nM. Also, the viability, T/C (compound 0.00949 µM) is 19.9% and 20.9%. For the same molecule, the viability, T/C (compound 0.03 µM) is 8.83% and 6.03%. Further, the viability, T/C (compound 0.0949 µM) was 7.38% and 2.26%. The viability, T/C (compound 0.3 µM) was 4.17% and 1.57%. For the same molecule, the viability, T/C (compound 0.949 µM) was 8.44% and 0.8%. The viability, T/C (compound 3 µM) is 6.16% and 0.67%.

Regarding `Nc1ccccc1NC(=O)c1ccc(CNC(=O)OCc2cccnc2)cc1`, the IC50 is 62 nM and 25.2 nM. Under “compound 0.00949 µM”, the viability, T/C was 92.7% and 64.7%. Besides, under “compound 0.03 µM”, the viability, T/C is 63.2% and 46.1%. Besides, where the note is “compound 0.0949 µM”, the viability, T/C was 44.3% and 33.1%. Also, the viability, T/C (compound 0.3 µM) was 22.8% and 16.8%. Moreover, the viability, T/C (compound 0.949 µM) was 12.9% and 6.76%. Besides, the viability, T/C (compound 3 µM) was 10.3% and 0.3%.

For the molecule `Nc1ccn(C2OC(CO)C(O)C2(F)F)c(=O)n1` (stereo not drawn), the IC50 was < 0.949 nM. The viability, T/C (compound 0.000949 µM) was 5.28% and 20.8%. Further, the viability, T/C (compound 0.003 µM) was 8.05% and 3%. For the setting “compound 0.00949 µM”, the viability, T/C is 5.82% and 2.16%. In addition, the viability, T/C (compound 0.03 µM) was 8.91% and 2.45%. Further, the viability, T/C (compound 0.0949 µM) is 10.2% and 2.79%. Also, the viability, T/C (compound 0.3 µM) was 8.07% and 3.31%.

Regarding `Nc1ncn(C2CC(O)C(CO)O2)c(=O)n1` (stereo not drawn), the IC50 was 18.6 nM and 63.9 nM. The viability, T/C (compound 0.00316 µM) was 74.3% and 93.4%. Moreover, the viability, T/C (compound 0.01 µM) was 60.7% and 84.3%. For the same molecule, the viability, T/C (compound 0.0316 µM) was 40.7% and 68.5%. The viability, T/C (compound 0.1 µM) is 28.2% and 37.6%. Also, under “compound 0.316 µM”, the viability, T/C was 23.4% and 23.6%. Further, the viability, T/C (compound 1 µM) was 11.6% and 15.8%.

With `Nc1ncn(C2CC(O)C(CO)S2)c(=O)n1` (stereo not drawn), the IC50 is 4.06 nM and 4.91 nM. Besides, for the setting “compound 0.000949 µM”, the viability, T/C is 81.4% and 90.5%. For the same molecule, where the note is “compound 0.003 µM”, the viability, T/C is 52.7% and 62.2%. Also, where the note is “compound 0.00949 µM”, the viability, T/C was 39.5% and 33.1%. Moreover, under “compound 0.03 µM”, the viability, T/C was 17.3% and 19.7%. Besides, for the setting “compound 0.0949 µM”, the viability, T/C was 10.9% and 9.65%. The viability, T/C (compound 0.3 µM) is 12% and 4.63%.

`O=C(C=Cc1cccc(S(=O)(=O)Nc2ccccc2)c1)NO`: the IC50 was 45.7 nM and 26 nM. Also, the viability, T/C (compound 0.00949 µM) is 70% and 91.1%. Further, for the setting “compound 0.03 µM”, the viability, T/C was 60.1% and 44%. Moreover, the viability, T/C (compound 0.0949 µM) is 32.8% and 28.1%. For the same molecule, the viability, T/C (compound 0.3 µM) was 20.3% and 16.4%. Further, the viability, T/C (compound 0.949 µM) is 13.7% and 2.92%. Also, the viability, T/C (compound 3 µM) is 13.9% and 72.2%.

For the molecule `O=C(C=Cn1cnc(-c2cc(C(F)(F)F)cc(C(F)(F)F)c2)n1)NNc1cnccn1`, the IC50 was < 3.16 nM. Also, the viability, T/C (compound 0.00316 µM) was 31.1% and 23.7%. Also, the viability, T/C (compound 0.01 µM) is 5.75% and 8.41%. For the same molecule, the viability, T/C (compound 0.0316 µM) was 3.88% and 2.23%. Also, the viability, T/C (compound 0.1 µM) is 6.09% and 0.68%. Besides, the viability, T/C (compound 0.316 µM) was 7.95% and 0.57%. Also, the viability, T/C (compound 1 µM) is 6.27% and 0.53%.

Consider `O=C(c1cc(Cc2n[nH]c(=O)c3ccccc23)ccc1F)N1CCN(C(=O)C2CC2)CC1`, for which the half-inhibitory concentration (IC50) is 395 nM and 813 nM. For the same molecule, the viability, T/C (compound 0.0316 µM) was 81.2% and 95.5%. For the same molecule, under “compound 0.1 µM”, the viability, T/C is 92.8% and 89.7%. The viability, T/C (compound 0.316 µM) is 57.2% and 74.8%. Under “compound 1 µM”, the viability, T/C was 17.2% and 46.9%. Further, under “compound 3.16 µM”, the viability, T/C was 10.2% and 11.8%. Besides, the viability, T/C (compound 10 µM) is 7.83% and 6.41%.

One may read the viability, T/C as the ratio of treated to control. What is called IC50 is the concentration that inhibits the measured activity by half.
